Settings: Liquid, vibrating wire

CCOCC [diethyl ether]
Settings | mass density [kg/m3] | viscosity [mPa·s]
243.15 K, 100 kPa | 768.339 | 0.412
243.15 K, 4360 kPa | 771.759 | 0.427
243.15 K, 9400 kPa | 775.801 | 0.445
243.15 K, 14450 kPa | 779.603 | 0.463
243.15 K, 19460 kPa | 783.16 | 0.481
253.15 K, 100 kPa | 758.413 | 0.363
253.15 K, 4440 kPa | 762.367 | 0.377
253.15 K, 9400 kPa | 766.683 | 0.392
253.15 K, 14460 kPa | 770.762 | 0.408
253.15 K, 19510 kPa | 774.696 | 0.424
263.15 K, 100 kPa | 747.885 | 0.323
263.15 K, 4390 kPa | 752.036 | 0.335
263.15 K, 9440 kPa | 756.778 | 0.35
263.15 K, 14430 kPa | 761.197 | 0.364
263.15 K, 19430 kPa | 765.357 | 0.378
273.15 K, 100 kPa | 736.593 | 0.288
273.15 K, 4380 kPa | 741.075 | 0.3
273.15 K, 9430 kPa | 746.224 | 0.313
273.15 K, 14470 kPa | 750.968 | 0.326
273.15 K, 19480 kPa | 755.407 | 0.339
283.15 K, 100 kPa | 725.632 | 0.26
283.15 K, 4390 kPa | 730.65 | 0.27
283.15 K, 9420 kPa | 735.997 | 0.283
283.15 K, 14500 kPa | 741.302 | 0.294
283.15 K, 19540 kPa | 746.114 | 0.307
293.15 K, 100 kPa | 714.517 | 0.235
293.15 K, 4380 kPa | 719.86 | 0.245
293.15 K, 9420 kPa | 725.825 | 0.256
293.15 K, 14480 kPa | 731.278 | 0.268
293.15 K, 19490 kPa | 736.437 | 0.28
303.15 K, 220 kPa | 702.89 | 0.214
303.15 K, 4380 kPa | 708.706 | 0.223
303.15 K, 9420 kPa | 715.312 | 0.234
303.15 K, 14500 kPa | 721.122 | 0.245
303.15 K, 19560 kPa | 726.788 | 0.256
313.15 K, 410 kPa | 691.21 | 0.195
313.15 K, 4360 kPa | 697.329 | 0.203
313.15 K, 9430 kPa | 704.446 | 0.214
313.15 K, 14520 kPa | 710.954 | 0.225
313.15 K, 19610 kPa | 717.082 | 0.235
323.15 K, 350 kPa | 678.758 | 0.179
323.15 K, 4380 kPa | 685.74 | 0.187
323.15 K, 9430 kPa | 693.587 | 0.197
323.15 K, 14490 kPa | 700.362 | 0.209
323.15 K, 19510 kPa | 707.014 | 0.217
333.15 K, 410 kPa | 666.408 | 0.163
333.15 K, 4390 kPa | 673.959 | 0.172
333.15 K, 9430 kPa | 682.531 | 0.182
333.15 K, 14470 kPa | 690.138 | 0.192
333.15 K, 19470 kPa | 697.082 | 0.201
343.15 K, 340 kPa | 653.148 | 0.15
343.15 K, 4390 kPa | 661.825 | 0.158
343.15 K, 9420 kPa | 671.37 | 0.167
343.15 K, 14460 kPa | 679.704 | 0.178
343.15 K, 19470 kPa | 687.162 | 0.187
353.15 K, 410 kPa | 639.678 | 0.137
353.15 K, 4380 kPa | 649.165 | 0.146
353.15 K, 9410 kPa | 659.723 | 0.155
353.15 K, 14440 kPa | 668.759 | 0.165
353.15 K, 19400 kPa | 676.864 | 0.174
363.15 K, 510 kPa | 625.615 | 0.126
363.15 K, 4380 kPa | 636.228 | 0.134
363.15 K, 9390 kPa | 647.821 | 0.144
363.15 K, 14400 kPa | 657.773 | 0.153
363.15 K, 19350 kPa | 666.459 | 0.162
373.15 K, 650 kPa | 610.791 | 0.116
373.15 K, 4380 kPa | 622.533 | 0.124
373.15 K, 9380 kPa | 635.564 | 0.134
373.15 K, 14400 kPa | 646.594 | 0.143
373.15 K, 19460 kPa | 656.28 | 0.151
